PubChem BioAssay (NCI)
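Protocol summary: plate cells (96-well), add compound at 5 concentrations, incubate 48 h, interpolate endpoints linearly. The concentration for 50% growth inhibition is given as GI50. Definition used: TGI = concentration required for complete inhibition of growth.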

Experiments:
Assay in all cases: NCI-60 cell line screen, 48 h
NCI/ADR-RES ovarian = test system: NCI/ADR-RES ovarian
HL-60(TB) leukemia = test system: HL-60(TB) leukemia
RXF 393 renal = test system: RXF 393 renal
SW-620 colon = test system: SW-620 colon
OVCAR-5 ovarian = test system: OVCAR-5 ovarian
NCI-H522 lung = test system: NCI-H522 lung
TK-10 renal = test system: TK-10 renal
SF-295 CNS = test system: SF-295 CNS
DU-145 prostate = test system: DU-145 prostate
IGROV1 ovarian = test system: IGROV1 ovarian

| Structure (SMILES) | TGI (NCI/ADR-RES ovarian) [µM] | TGI (HL-60(TB) leukemia) [µM] | TGI (RXF 393 renal) [µM] | TGI (SW-620 colon) [µM] | TGI (OVCAR-5 ovarian) [µM] | TGI (NCI-H522 lung) [µM] | TGI (TK-10 renal) [µM] | TGI (SF-295 CNS) [µM] | TGI (DU-145 prostate) [µM] | TGI (IGROV1 ovarian) [µM] | GI50 (HL-60(TB) leukemia) [µM] | GI50 (RXF 393 renal) [µM] | GI50 (IGROV1 ovarian) [µM] | GI50 (TK-10 renal) [µM] |
| --- | --- | --- | --- | --- | --- | --- | --- | --- | --- | --- | --- | --- | --- | --- |
| NC(CC(O)(c1ccccc1)c1ccccc1)c1ccccc1S (stereo unspecified) | 33.5 | 59.5 | 31 | 36.4 | 31.7 | 30.3 | 29.7 | 31.4 |  |  |  |  |  |  |
| CC(=O)OC(C)(C)CCC(=O)[C@](C)(O)[C@H]1[C@H](O)C[C@@]2(C)[C@@H]3CC=C4C(C)=C(OC5OC(CO)C(O)C(O)C5O)C(=O)C[C@@H]4[C@]3(C)C(=O)C[C@]12C (stereo partly specified) | > 100 |  | > 100 | > 100 | > 100 | > 100 | > 100 | > 100 | > 100 | > 100 |  |  |  |  |
| O=C(O)CCc1ccc2c(c1)CC1(Cc3ccccc3C1)C2 | > 100 |  | > 100 |  | > 100 | > 100 | > 100 | > 100 |  | > 100 |  |  |  |  |
| CN(C)c1ccc(/C=C/C(=O)O)cc1 |  | > 100 |  | > 100 | > 100 | > 100 |  | > 100 |  | > 100 |  |  |  |  |
| CN(Cc1cnc2nc(N)nc(N)c2n1)c1ccc(C(=O)NC(CCC(=O)NC(CC(P(=O)(O)O)P(=O)(O)O)C(=O)O)C(=O)O)cc1 (stereo unspecified) | > 100 |  | > 100 | > 100 | > 100 | > 100 | > 100 | > 100 | > 100 | > 100 |  |  |  |  |
| CC12ON(P(=O)(c3ccccc3)c3ccccc3)C(C)(c3ccccc31)c1ccccc12 | > 100 | > 100 | > 100 | > 100 | > 100 | > 100 | > 100 | > 100 | > 100 | > 100 |  |  |  |  |
| O=[N+]([O-])c1ccc(O)c(/C=N/c2nc(-c3ccccc3)cs2)c1 | > 91.4 | > 100 | 45.1 | > 100 | > 100 | 38.1 | > 75.4 | > 95.9 | > 87.1 | 74.3 |  |  |  |  |
| CC(=O)OC(C)c1cc2c(s1)C(=O)c1c(C(C)OC(C)=O)csc1C2=O (stereo unspecified) | 3.62 | 2.15 | 4.39 | 2.37 | 3.41 |  | 5.69 | 2.59 | 1.86 | 3.28 | 0.0682 |  |  |  |
| CC1=CCC[C@H]2[C@](C)(CC3=CC(=O)C(Sc4ccccc4)=CC3=O)[C@@H](C)CC[C@]12C | 32.5 |  | 34.3 | 30.5 | 32.1 |  |  | 32.9 | 47.4 | 30.4 |  | 16.1 | 16.2 |  |
| COc1cc2c(cc1OC)[C@@](C)(C(O)C(O)C(C)(C)O)NCC2 (stereo partly specified) | > 100 | > 100 | > 100 |  | > 100 | > 100 | > 100 | > 100 | > 100 | > 100 |  |  |  |  |
| COc1ccc(C2SCC(=O)N2NC(=O)C(C)Oc2ccccc2C)cc1 (stereo unspecified) | > 100 | 61.2 | > 100 | > 100 | > 100 | > 100 | > 100 | > 100 | > 100 | > 100 |  |  |  |  |
| COc1c(C)c(C/C=C(\C)CC/C=C(\C)CC/C=C(\C)CCC=C(C)C)c(OC)c2ccccc12 | > 100 |  | > 100 | > 100 | > 100 | > 100 | > 100 | > 100 | > 100 | > 100 |  |  |  |  |
| COC(=O)c1ccccc1C1=C([N+](=O)[O-])C(c2ccccc2)C(C#N)=C(N)O1 (stereo unspecified) | > 100 | > 100 | 95.2 | > 100 | > 100 | 30.8 | > 100 | > 100 | > 100 | > 100 |  |  |  |  |
| CCOC(=O)C(=CN1CCNC1=S)C(=O)OCC | > 100 | > 100 | > 100 | > 100 | > 100 | > 100 | > 100 | > 100 | > 100 | > 100 |  |  |  | > 100 |
| COc1cc(CCN(C)C)cc(OC)c1OC | > 100 | > 100 | > 100 | > 100 | > 100 | > 100 | > 100 | > 100 | > 100 | > 100 |  |  |  |  |
| Cc1cc2oc(C)c(S(=O)(=O)NC(=O)Nc3ccc(Cl)cc3)c(=O)c2c(=O)o1 | > 100 | > 100 | > 100 | > 100 | > 100 | > 100 | > 100 | > 100 | > 100 | > 100 |  |  |  |  |
| CC12CCC(C(=Nc3cc(C(F)(F)F)cc(C(F)(F)F)c3)C1=O)C2(C)C (stereo unspecified) | > 100 | 23.8 | 37.3 | > 100 | > 100 |  | > 100 | > 100 | > 100 | 76.1 |  |  |  |  |
| CCOC(=O)c1[nH]c2cccc3c2c1CC[C@H](NC(=O)C(F)(F)F)C3=O | > 100 | > 100 |  | > 100 | > 100 |  | > 100 | 72.4 | > 100 | > 100 |  |  |  |  |
| CN[C@@H](C)[C@@H](O)c1ccccc1 | > 100 | > 100 |  | > 100 | > 100 | > 10 | > 100 | > 100 | > 100 | > 100 |  |  |  |  |
| CCCc1nnc2sc(COc3cc(Cl)c(OCc4nn5c(CCC)nnc5s4)cc3Cl)nn12 | > 100 | 80.5 | > 100 | > 100 | > 100 | > 100 | > 100 | > 100 | > 100 | > 100 |  |  |  |  |
| CC(C)(C)OC(=O)N1[C@@H]2Cc3ccc(N)cc3[C@@]1(C)c1ccccc12 | 51.1 | 44.9 | 31.1 | > 100 | > 100 | 38.4 | > 100 | > 100 | > 100 | > 100 |  |  |  |  |
| COc1cccc(-c2nccc3c(OCc4ccccc4)c(OC)c(OC)cc23)c1 |  | > 100 | > 100 | > 100 | > 100 | > 100 | > 100 | > 100 |  | > 100 |  |  |  |  |
